We go through 19 compounds from patent US8492371B2, “Compounds as cannabinoid receptor ligands” (priority 2009, dated 2013).

One experiment concerns the target T1, human CB2 receptors (Homo sapiens, UniProt P34972).
T1 construct: expressed in transfected cells; host or cells: HEK293
Briefly: Human CB2 radioligand binding assay ([3H]CP-55,940 competition). How it is done:
The CB1 and CB2 radioligand binding assays described herein are utilized to determine the selectivity of compounds of the present invention for binding to CB2 relative to CB1 receptors.
(§1) HEK293 cells stably expressing human CB2 receptors were grown until a confluent monolayer was formed. Briefly, the cells were harvested and homogenized in TE buffer (50 mM Tris-HCl, 1 mM MgCl2, and 1 mM EDTA) using a polytron for 2×10 second bursts in the presence of protease inhibitors, followed by centrifugation at 45,000×g for 20 minutes. The final membrane pellet was re-homogenized in storage buffer (50 mM Tris-HCl, 1 mM MgCl2, and 1 mM EDTA and 10% sucrose) and frozen at −78° C. until used. Saturation binding reactions were initiated by the addition of membrane preparation (protein concentration of 5 μg/well for human CB2) into wells of a deep well plate containing ([^3H]CP-55,940 (120 Ci/mmol, a nonselective CB agonist commercially available from Tocris) in assay buffer (50 mM Tris, 2.5 mM EDTA, 5 mM MgCl2, and 0.5 mg/mL fatty acid free BSA, pH 7.4). After 90 min incubation at 30° C., binding reaction was terminated by the addition of 300 μL/well of cold assay buffer followed by rapid vacuum filtration through a UniFilter-96 GF/C filter plates (pre-soaked in 1 mg/mL BSA for 2 hours). The bound activity was counted in a TopCount using Microscint-20. Saturation experiments were conducted with twelve concentrations of [^3H]CP-55,940 ranging from 0.01 to 8 nM. Competition experiments were conducted with 0.5 nM [^3H]CP-55,940 and five concentrations of displacing ligands selected from the range of 0.01 nM to 10 μM. The addition of 10 μM unlabeled CP-55,940 (Tocris, Ellisville, Mo.) was used to assess nonspecific binding.

For another experiment, the target named is T2, rat CB2 receptors (Rattus norvegicus, UniProt Q9QZN9).
T2 construct: expressed in transfected cells; host or cells: HEK293
T2 sequence (Q9QZN9 1-360): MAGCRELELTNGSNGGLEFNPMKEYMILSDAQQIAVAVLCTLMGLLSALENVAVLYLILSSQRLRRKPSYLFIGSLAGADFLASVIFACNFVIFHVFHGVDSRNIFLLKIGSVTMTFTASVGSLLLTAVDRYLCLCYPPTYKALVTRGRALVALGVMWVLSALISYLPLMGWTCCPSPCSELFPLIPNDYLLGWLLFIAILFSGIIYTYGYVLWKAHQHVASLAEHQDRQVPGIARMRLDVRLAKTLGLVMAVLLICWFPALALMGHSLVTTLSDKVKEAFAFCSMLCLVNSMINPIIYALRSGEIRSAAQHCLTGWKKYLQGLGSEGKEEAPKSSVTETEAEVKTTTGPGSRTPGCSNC
The experiment is described as follows: Rat CB2 radioligand binding assay ([3H]CP-55,940 competition). How it is done:
as §1, with “expressing rat” for “expressing human”, “of 20” for “of 5”, “for rat” for “for human”, “containing [^3H]CP-55,940” for “containing ([^3H]CP-55,940”, “After 45” for “After 90”, “[…]” for “10 μM.”

Where [1] appears, read: HEK293 membranes, 0.5 nM [3H]CP-55,940, read-out: human CB2 Ki.
The mark [2] stands for this setting: HEK293 membranes, 0.5 nM [3H]CP-55,940, read-out: rat CB2 Ki.

Like-named read-outs stand apart in the source and are kept apart here.

T1 sequence (P34972 whole entry): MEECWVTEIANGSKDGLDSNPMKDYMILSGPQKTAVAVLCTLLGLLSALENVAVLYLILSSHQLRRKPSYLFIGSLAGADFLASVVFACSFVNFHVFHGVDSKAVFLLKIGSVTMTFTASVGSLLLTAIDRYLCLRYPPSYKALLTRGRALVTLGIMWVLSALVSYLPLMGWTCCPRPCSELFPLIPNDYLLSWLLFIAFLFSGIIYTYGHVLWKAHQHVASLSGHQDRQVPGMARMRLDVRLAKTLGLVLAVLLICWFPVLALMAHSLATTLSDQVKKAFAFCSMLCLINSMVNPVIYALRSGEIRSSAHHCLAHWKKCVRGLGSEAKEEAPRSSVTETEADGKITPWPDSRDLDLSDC

As for `COCCOc1ccc(Br)cc1C(=O)/N=c1\cc(C(C)(C)C)n(C)n1C[C@H]1CCCO1` [Example 58, 5-bromo-N-{(3E)-5-tert-butyl-1-methyl-2-[(2R)-tetrahydrofuran-2-ylmethyl]-1,2-dihydro-3H-pyrazol-3-ylidene}-2-(2-methoxyethoxy)benzamide], the values for the inhibition constant (Ki) on human CB2 receptors and on rat CB2 receptors were 31 nM and 69 nM, respectively.
On the same counts, the results for `COc1ccc(Br)cc1C(=O)/N=c1\cc(C(C)(C)C)n(C)n1C[C@H]1CCCO1` [Example 49, 5-bromo-N-{(3E)-5-tert-butyl-1-methyl-2-[(2R)-tetrahydrofuran-2-ylmethyl]-1,2-dihydro-3H-pyrazol-3-ylidene}-2-methoxybenzamide] are 56 nM and 20 nM.
For `CC(CCc1ccccc1)NC(=O)/N=c1\sc(C(C)(C)C)nn1C[C@H]1CCCO1` (stereo partly drawn) [Example 79, N-[(2Z)-5-tert-butyl-3-[(2R)-tetrahydrofuran-2-ylmethyl]-1,3,4-thiadiazol-2(3 H)-ylidene]-N′-(1-methyl-3-phenylpropyl)urea], in that order: 32 nM and 11 nM.
For `Cn1c(C(C)(C)C)c/c(=N\C(=O)c2cc(Cl)ccc2F)n1C[C@H]1CCCO1` [Example 116], in that order: 26 nM and 11 nM.
For the compound `COc1ccc(Cl)cc1C(=O)/N=c1\sc(C(C)(C)C)nn1C[C@H]1COC(=O)N1` [Example 91, N-[(2Z)-5-tert-butyl-3-{[(4S)-2-oxo-1,3-oxazolidin-4-yl]methyl}-1,3,4-thiadiazol-2(3H)-ylidene]-5-chloro-2-methoxybenzamide], the inhibition constant (Ki) is 203 nM on human CB2 receptors (setting [1]) and 30 nM on rat CB2 receptors.
`COc1ccc(Cl)cc1C(=O)/N=c1\cc(C(C)(C)C)n(C)n1C[C@H]1CCCO1` [Example 45, N-{(3E)-5-tert-butyl-1-methyl-2-[(2R)-tetrahydrofuran-2-ylmethyl]-1,2-dihydro-3H-pyrazol-3-ylidene}-5-chloro-2-methoxybenzamide]: the Ki on human CB2 receptors was determined as 8.2 nM; on rat CB2 receptors, 4.9 nM.
In the case of `COc1ccc(Cl)cc1C(=O)/N=c1\sc(C(C)(C)C)nn1C[C@H]1CCCO1` [Example 4, N-[(2Z)-5-tert-butyl-3-[(2R)-tetrahydrofuran-2-ylmethyl]-1,3,4-thiadiazol-2(3 H)-ylidene]-5-chloro-2-methoxybenzamide], the inhibitory constant (Ki) came out at 6.9 nM at human CB2 receptors and 1.2 nM on rat CB2 receptors.
Regarding “N-({[(2Z)-5-tert-butyl-3-[(2R)-tetrahydrofuran-2-ylmethyl]-1,3,4-thiadiazol-2(3 H)-ylidene]amino}carbonyl)-L-phenylalaninamide [Example 80]”, the values for the inhibition constant (Ki) on human CB2 receptors (setting [1]) and on rat CB2 receptors (setting [2]) were 28 nM and 38 nM, respectively.
On to `Cn1c(C(C)(C)C)c/c(=N\C(=O)c2cc(F)ccc2Cl)n1C[C@H]1CCCO1` [Example 50, N-{(3E)-5-tert-butyl-1-methyl-2-[(2R)-tetrahydrofuran-2-ylmethyl]-1,2-dihydro-3H-pyrazol-3-ylidene}-2-chloro-5-fluorobenzamide], for which the inhibitory constant (Ki) worked out at 63 nM at human CB2 receptors and 54 nM on rat CB2 receptors.
`Cn1c(C(C)(C)C)c/c(=N\C(=O)c2cc(C(F)(F)F)ccc2OCCF)n1C[C@H]1CCCO1` [Example 22, N-{(3E)-5-tert-butyl-1-methyl-2-[(2R)-tetrahydrofuran-2-ylmethyl]-1,2-dihydro-3H-pyrazol-3-ylidene}-2-(2-fluoroethoxy)-5-(trifluoromethyl)benzamide]: the Ki was found to be 24 nM at human CB2 receptors and 10 nM at rat CB2 receptors.
On the same counts, the results for `Cn1c(C(C)(C)C)c/c(=N\C(=O)c2cc(C(F)(F)F)ccc2OCC(F)(F)F)n1C[C@H]1CCCO1` [Example 21, N-{(3E)-5-tert-butyl-1-methyl-2-[(2R)-tetrahydrofuran-2-ylmethyl]-1,2-dihydro-3H-pyrazol-3-ylidene}-2-(2,2,2-trifluoroethoxy)-5-(trifluoromethyl)benzamide] are 63 nM and 22 nM.
Take `CC(C)CS(=O)(=O)Nc1ccc(C(F)(F)F)cc1C(=O)/N=c1\cc(C(C)(C)C)n(C)n1C[C@H]1CCCO1` [Example 125, N-{(3E)-5-tert-butyl-1-methyl-2-[(2R)-tetrahydrofuran-2-ylmethyl]-1,2-dihydro-3H-pyrazol-3-ylidene}-2-[(isobutylsulfonyl)amino]-5-(trifluoromethyl)benzamide]: the Ki on human CB2 receptors turned out to be 32 nM; at rat CB2 receptors, 25 nM.
Regarding `C=Cc1ccc(C(F)(F)F)cc1C(=O)/N=c1\cc(C(C)(C)C)n(C)n1C[C@H]1CCCO1` [Example 122, N-{(3E)-5-tert-butyl-1-methyl-2-[(2R)-tetrahydrofuran-2-ylmethyl]-1,2-dihydro-3H-pyrazol-3-ylidene}-5-(trifluoromethyl)-2-vinylbenzamide], the Ki was determined as 8.2 nM at human CB2 receptors and 1.4 nM on rat CB2 receptors.
Regarding `COc1ccc(C(F)(F)F)cc1C(=O)/N=c1\c2c(n(C)n1C[C@H]1CCCO1)CCC2` [Example 32, 2-methoxy-N-[(3E)-1-methyl-2-[(2R)-tetrahydrofuran-2-ylmethyl]-1,4,5,6-tetrahydrocyclopenta[c]pyrazol-3(2H)-ylidene]-5-(trifluoromethyl)benzamide], the Ki is 261 nM on human CB2 receptors and 114 nM on rat CB2 receptors (setting [2]).
For `Cn1c(C(C)(C)C)c/c(=N\C(=O)c2cc(C(F)(F)F)ccc2OCCC(C)(C)F)n1C[C@H]1CCCO1` [Example 43, N-{(3E)-5-tert-butyl-1-methyl-2-[(2R)-tetrahydrofuran-2-ylmethyl]-1,2-dihydro-3H-pyrazol-3-ylidene}-2-(3-fluoro-3-methylbutoxy)-5-(trifluoromethyl)benzamide], the inhibition constant (Ki) at human CB2 receptors is 19 nM; at rat CB2 receptors, 10 nM.
For the compound `Cn1c(C(C)(C)C)c/c(=N\C(=O)c2cc([N+](=O)[O-])ccc2F)n1C[C@H]1CCCO1` [Example 129, N-{(3E)-5-tert-butyl-1-methyl-2-[(2R)-tetrahydrofuran-2-ylmethyl]-1,2-dihydro-3H-pyrazol-3-ylidene}-2-fluoro-5-nitrobenzamide], the Ki was 8.6 nM at human CB2 receptors and 2.3 nM on rat CB2 receptors.
In the case of `CO[C@@H](C)COc1ccc(C(F)(F)F)cc1C(=O)/N=c1\cc(C(C)(C)C)n(C)n1C[C@H]1CCCO1` [Example 28, N-{(3E)-5-tert-butyl-1-methyl-2-[(2R)-tetrahydrofuran-2-ylmethyl]-1,2-dihydro-3H-pyrazol-3-ylidene}-2-{[(2S)-2-methoxypropyl]oxy}-5-(trifluoromethyl)benzamide], the results for the Ki at human CB2 receptors and at rat CB2 receptors were 101 nM and 44 nM, respectively.
With `COc1ccc(Cl)cc1C(=O)/N=c1\sc(C2CC2)nn1CC1CCCO1` (centres unmarked) [Example 2, 5-chloro-N-[(2Z)-5-cyclopropyl-3-(tetrahydrofuran-2-ylmethyl)-1,3,4-thiadiazol-2(3 H)-ylidene]-2-methoxybenzamide], the inhibition constant Ki amounted to 17 nM on human CB2 receptors and 12 nM on rat CB2 receptors.
On the same counts, the results for `COC/C=C/c1ccc(C(F)(F)F)cc1C(=O)/N=c1\cc(C(C)(C)C)n(C)n1C[C@H]1CCCO1` [Example 89, N-{(3E)-5-tert-butyl-1-methyl-2-[(2R)-tetrahydrofuran-2-ylmethyl]-1,2-dihydro-3H-pyrazol-3-ylidene}-2-[(1E)-3-methoxyprop-1-enyl]-5-(trifluoromethyl)benzamide] are 9.8 nM and 5.8 nM.

As a reminder, the Ki is the dissociation constant of the complex between target and ligand, obtained from inhibition or displacement.
